From publication PMC8175350, “Drug repurposing screens identify chemical entities for the development of COVID-19 interventions” (Nature Communications, 2021)
pEC50: −log10 of the molar value. Counter-ions that a name gives are not always drawn. Like-named read-outs stand apart in the source and are kept apart here.

What was measured:
SARS-CoV-2 [1] = experiment: microbe, parasite or virus in culture; format: cell-based; conditions: for Emax: Severe acute respiratory syndrome coronavirus 2, HeLa-ACE2, 24 h, read-out: HeLa-ACE2 CoV-2 Sinf Average; for pEC50: read-out: HeLa-ACE2 CoV-2 EC50 GeoMean
Calu-3 cells [2] = experiment: Uninfected Calu-3 48 h Cell-Titer Glo cytotoxicity counter screen
[3] = as above; conditions: human, uninfected Calu-3 cells
[4] = HEK293T 72 h CellTiter-Glo cytotoxicity; conditions: human, HEK293T cells
HEK293T = HEK293T 72 h CellTiter-Glo cytotoxicity; conditions: 72 h
[5] = HepG2 72 h CellTiter-Glo cytotoxicity; conditions: human, HepG2 cells
HepG2 = HepG2 72 h CellTiter-Glo cytotoxicity; conditions: 72 h
SARS-CoV-2 [6] = experiment: microbe, parasite or virus in culture; format: cell-based; conditions: for Emax: Severe acute respiratory syndrome coronavirus 2, Calu-3, 48 h, read-out: Calu-3 CoV-2 Sinf Average; for pEC50: read-out: Calu-3 CoV-2 EC50 GeoMean
Calu-3 cells [7] = experiment: cells; conditions: Homo sapiens; for Emax: Calu-3, 48 h, read-out: Calu-3 cell count Sinf Average; for pEC50: Calu-3, read-out: Calu-3 cell count EC50 GeoMean
HeLa-ACE2 cells [8] = experiment: Uninfected HeLa-ACE2 24 h live/dead cytotoxicity counter screen; format: cell-based, human; conditions: curve plateau at infinite concentration
[9] = as above; format: cell-based, human; conditions: human, uninfected HeLa-ACE2 cells; read-out: HeLa-ACE2 uninfected cytotoxicity CC50 GeoMean
SARS-CoV-2 [10] = format: cell-based; conditions: combination with remdesivir, synergy score δ
SARS-CoV-2 [11] = experiment: microbe, parasite or virus in culture; format: cell-based; conditions: for Emax: Severe acute respiratory syndrome coronavirus 2, HeLa-ACE2, 10 h, curve plateau at infinite concentration, read-out: HeLa-ACE2 TOA CoV-2 Sinf Average; for pEC50: read-out: HeLa-ACE2 TOA CoV-2 EC50 GeoMean
HeLa-ACE2 cells [12] = experiment: Total cell count in the HeLa-ACE2 TOA assay; format: cell-based; conditions: Homo sapiens; for pEC50: HeLa-ACE2, read-out: HeLa-ACE2 TOA cell count EC50 GeoMean; for Emax: HeLa-ACE2, 10 h, curve plateau at infinite concentration, read-out: HeLa-ACE2 TOA cell count Sinf Average
Text: Supplement 41467_2021_23328_MOESM3_ESM.xlsx, sheet "Table S1" | column: HeLa-ACE2 TOA cell count

HeLa-ACE2 cells [13] = experiment: cells; conditions: Homo sapiens; for pEC50: HeLa-ACE2, read-out: HeLa-ACE2 cell count EC50 GeoMean; for Emax: HeLa-ACE2, 24 h, read-out: HeLa-ACE2 cell count Sinf Average
[14] = Calu-3 uninfected cytotoxicity CC50 GeoMean
[15] = curve plateau at infinite concentration
[16] = Severe acute respiratory syndrome coronavirus 2, HeLa-ACE2, detail column
[17] = Severe acute respiratory syndrome coronavirus 2, HeLa-ACE2
[18] = Severe acute respiratory syndrome coronavirus 2, Calu-3, detail column

Row | Compound | CC50 at 48 h [3, 14] | CC50 at 72 h [4] | HEK293T 72-hour cytotoxicty Sinf Average (HEK293T) | CC50 at 72 h [5] | HepG2 72-hour cytotoxicity Sinf Average (HepG2) | Emax (Calu-3 cells [7]) | HeLa-ACE2 uninfected cytotoxicity Sinf Average (HeLa-ACE2 cells [8]) | CC50 at 24 h [9] | Emax (SARS-CoV-2 [1]; [15]) | pEC50 (SARS-CoV-2 [1]; [16]) | Calu-3 uninfected cytotoxicity Sinf Average (Calu-3 cells [2]; [15]) | Emax (SARS-CoV-2 [11]) | pEC50 (SARS-CoV-2 [11]; [17]) | pEC50 (HeLa-ACE2 cells [12]) | Emax (SARS-CoV-2 [6]; [15]) | pEC50 (SARS-CoV-2 [6]; [18]) | pEC50 (Calu-3 cells [7]) | pEC50 (HeLa-ACE2 cells [13]) | Emax (HeLa-ACE2 cells [13]) | Emax (HeLa-ACE2 cells [12]) | other results
1 | Cc1ccc(NC(=O)c2ccc(CN3CCN(C)CC3)cc2)cc1Nc1nccc(-c2cccnc2)n1 [Imatinib mesylate] | > 29.9 µM | 15.2 µM | -100% | 12.9 µM | -100% | 100% | – | – | – | – | – | – | – | – | – | – | – | – | – | – | Emax (SARS-CoV-2 [1]): 100%; Calu-3 uninfected cytotoxicity Sinf Average (Calu-3 cells [2]; human, uninfected Calu-3 cells, 48 h): -100%; Emax (SARS-CoV-2 [6]): 100%
2 | NC1(c2ccc(-c3nc4ccn5c(=O)[nH]nc5c4cc3-c3ccccc3)cc2)CCC1 [MK-2206] | 8.7 µM | 3.88 µM | -102% | 7.59 µM | -100% | -100% | -100% | > 22.8 µM | 99% | 5.96 | -100% | 100% | < 5.03 | < 5.02 | 82% | < 5.31 | < 5.00 | < 5.02 | – | – | HeLa-ACE2 synergy score with remdesivi [δ] (SARS-CoV-2 [10]): 2.087; EC50 ratio between the standard 24 h and the TOA assay (SARS-CoV-2 [11]): > 8; SI in Calu-3 (SARS-CoV-2 [6]): < 2
3 | COc1ccc(C[C@H](N)C(=O)N[C@H]2[C@@H](O)[C@H](n3cnc4c(N(C)C)ncnc43)O[C@@H]2CO)cc1 [Puromycin - cytotoxicity control] | 3.95 µM | 0.829 µM | -101% | 1.08 µM | -101% | -100% | -100% | 0.658 µM | 100% | 6.32 | -101% | 103% | 6.50 | < 5.02 | 97% | 5.56 | < 5.00 | 5.81 | 101% | – | –
4 | CNC(=O)c1cc(Oc2ccc(NC(=O)Nc3ccc(Cl)c(C(F)(F)F)c3)cc2)ccn1 [Sorafenib] | – | 3.34 µM | -107% | 7.15 µM | -101% | 100% | -99% | > 8.65 µM | 100% | – | -88% | 99% | – | < 5.02 | 100% | – | < 5.03 | < 5.08 | 100% | 100% | pEC50 (SARS-CoV-2 [1]; [17]): < 5.25; CC50 at 48 h [3]: 5.3 µM; pEC50 (SARS-CoV-2 [11]; [16]): 5.45; pEC50 (SARS-CoV-2 [6]; Severe acute respiratory syndrome coronavirus 2, Calu-3): < 5.28
5 | COc1cc2c(Nc3ccc(Cl)c(Cl)c3F)ncnc2cc1OC[C@@H]1C[C@@H]2CN(C)C[C@@H]2C1 [Tesevatinib, XL647, Kadmon Corporation] | 3.52 µM | 2.67 µM | -102% | 3.15 µM | -103% | -100% | -100% | > 20.6 µM | 101% | 5.61 | -105% | 100% | < 5.12 | < 5.02 | 100% | 5.48 | < 5.00 | < 5.09 | 100% | -100% | –
